{"source": "patent US20040022866A1", "about": "“Pharmaceutical compositions with antibiotic activity” (ZAMBON GROUP S.P.A., priority 2002, published 2004)", "test": "DSC measurement of the heat of the degradation reaction of FT", "type": "physicochemical", "conditions": "scanning 10° C./min., mechanic mixture FT 0.02 moles + stabilizer 0.01 moles, 0.05% of water with respect to FT, reduced heat = higher stabilization", "method": "The stabilization of FT from the selected stabilizers was evaluated experimentally with the DSC technology.\nA mechanic mixture of FT (0.02 moles) with each of the stabilizers (0.01 moles) was admixed with 0.05% of water with respect to FT.\nThe DCS technology used for each mixture (scanning 10° C./min.) allow to measure the reaction heat which develops after the melting peak of FT, due to the degradation reaction.\nA reduced heat development indicates a higher stabilization, the amount of FT being the same."}
{"smiles": "C[C@@H]1O[C@@H]1P(=O)(O)O.NC(CO)(CO)CO", "note": "[FT (single substance), Fosfomycin Tromethamol]", "values": [{"measurement": "reaction heat which develops after the melting peak of FT, due to the degradation reaction", "value": "271.03 ± 16.73 (J/g)"}]}
